According to PubChem BioAssay (NCI):
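Grown in 96-well plates, cells were treated for 48 hours with each compound at five concentrations. Insufficient inhibition: endpoint recorded as highest concentration tested. GI50 is the concentration that inhibits growth by half. The concentration for full growth arrest is given as TGI.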

Tested on: SN12C renal
Assay: NCI anticancer screen, dose series, 48 h

Structure (SMILES) | TGI
COc1cccc2c1Cc1cc(-c3ccccc3)[n+](C)n1-2 | 61.7 µM
O=C(OCN1C(=O)C2C3C=CC(C2C1=O)C1C2C(=O)N(COC(=O)C4CCCN4)C(=O)C2C31)C1CCCN1 (stereo not given) | > 100 µM
O=C(C[n+]1ccc2ccccc2c1)c1ccc2ccc3ccccc3c2c1 | 14.7 µM
NCCCCc1cc(O)c2c(c1O)C(=O)c1ccccc1C2=O | 23 µM
Cc1ccccc1C(=O)N/N=C/c1ccc(Sc2nccn2C)c([N+](=O)[O-])c1 | > 100 µM
CCn1c(-c2ccc(N=NNc3ccc(-c4n[nH]c(=S)n4CC)cc3)cc2)n[nH]c1=S | > 100 µM
CC(=O)C1=C(C)N(c2ccc(C)cc2)C2(O)C=CC(=O)C3C(=O)N(c4ccccc4)C(=O)C132 (stereo not given) | 34.2 µM
COc1ccc2c(c1)[nH]c1c(/C=C/c3ccccc3)nccc12 | 30.2 µM
Clc1cc2c(cc1Cl)CC(NCCN1CCCC1)CC2 (stereo not given) | 31.4 µM
[N-]=[N+]=CC(=O)c1ccccc1C#CCCc1ccccc1 | > 100 µM
CCN(CC(=O)O)C(=O)c1cccnc1 | > 100 µM
NCCSC(c1ccccc1)c1ccccc1 | > 100 µM
CCCCCCCCC/C=C/C=C/C(=O)NCC(=O)NC1C(O)C(O)C(Nc2ncnc3nc[nH]c23)OC1C(O)CO (stereo not given) | 0.913 µM
COc1nc(C#CC2(O)CCCCC2)nc(OC)n1 | 26.6 µM
C[C@H](CCC(=O)O)[C@H]1CC[C@@]2(C)[C@@H]3C(=O)C[C@H]4C(C)(C)[C@@H](O)CC[C@]4(C)[C@H]3C(=O)C[C@]12C | > 100 µM

Tested on: MDA-N
Assay: NCI anticancer screen, dose series, 48 h

Structure (SMILES) | TGI
CCOC(=O)C1=NN(c2ccc(C)cc2)C2=CC(C)=NN(C)C(=S)N21 | > 100 µM
O=C(c1cccs1)N(C(=S)OC12CC3CC(CC(C3)C1)C2)c1ccccc1 | > 100 µM
C(=N\NC1=NCCN1)/c1ccc(-c2cn3cc(/C=N/NC4=NCCN4)ccc3n2)cc1 | > 100 µM
Cc1c(N2C(=O)CS(=O)(=O)C2c2cccc(Oc3ccccc3)c2)c(=O)n(-c2ccccc2)n1C (stereo not given) | 62.6 µM
CC12CC3OC(=O)C1COC14OC5(C2C1=O)C(O)(CCC1C4CC(O)C2(O)CC=CC(=O)C12C)C(=O)OC35C (stereo not given) | > 100 µM
CCOC(=O)C(NC(=O)c1ccco1)(Nc1nc2ccc(OCC)cc2s1)C(F)(F)F (stereo not given) | 60 µM
CCC(C)C1=C(OC(C)=O)[N+]2([O-])Oc3ccc(-c4c(OC(C)=O)c(OC(C)=O)c(-c5ccc(OC(C)=O)cc5)c(OC(C)=O)c4OC(C)=O)cc3OC2(C(C)CC)C(=O)N1OC(C)=O (stereo not given) | > 50 µM
O=C(O)C1C2CCC(O2)C1C(=O)Nc1cccc2cccnc12 (stereo not given) | > 100 µM
COc1cccc2c1Cc1cc(-c3ccccc3)[n+](C)n1-2 | 26 µM
O=C(C[n+]1ccc2ccccc2c1)c1ccc2ccc3ccccc3c2c1 | 10.8 µM
NCCCCc1cc(O)c2c(c1O)C(=O)c1ccccc1C2=O | 28.6 µM
Cc1ccccc1C(=O)N/N=C/c1ccc(Sc2nccn2C)c([N+](=O)[O-])c1 | > 100 µM
CCn1c(-c2ccc(N=NNc3ccc(-c4n[nH]c(=S)n4CC)cc3)cc2)n[nH]c1=S | > 100 µM
COc1ccc2c(c1)[nH]c1c(/C=C/c3ccccc3)nccc12 | 37.2 µM
Clc1cc2c(cc1Cl)CC(NCCN1CCCC1)CC2 (stereo not given) | 14.3 µM
CCN(CC(=O)O)C(=O)c1cccnc1 | > 100 µM
NCCSC(c1ccccc1)c1ccccc1 | 34.2 µM
CCCCCCCCC/C=C/C=C/C(=O)NCC(=O)NC1C(O)C(O)C(Nc2ncnc3nc[nH]c23)OC1C(O)CO (stereo not given) | 1.21 µM
COc1nc(C#CC2(O)CCCCC2)nc(OC)n1 | 26.3 µM
C[C@H](CCC(=O)O)[C@H]1CC[C@@]2(C)[C@@H]3C(=O)C[C@H]4C(C)(C)[C@@H](O)CC[C@]4(C)[C@H]3C(=O)C[C@]12C | > 100 µM

Tested on: DLD-1 colon
Assay: NCI anticancer screen, dose series, 48 h

Structure (SMILES) | TGI | GI50
Nc1ccccc1S(=O)(=O)c1ccccc1 | > 100 µM | 
COc1cc2c(ccc3c4cc(OC)c(OC)cc4c[n+](C)c23)cc1O | > 75 µM | 
CNC(=O)OCc1c(CO)nc(SC)n1C | > 100 µM | 
CN(C)CC(CC1=C(CC(CN(C)C)N(C)C)CCC1)N(C)C (stereo not given) | > 100 µM | 
O=C(OCN1C(=O)C2C3C=CC(C2C1=O)C1C2C(=O)N(COC(=O)C4CCCN4)C(=O)C2C31)C1CCCN1 (stereo not given) | > 69.7 µM | 
[N-]=[N+]=CC(=O)c1ccccc1C#CCCc1ccccc1 | > 100 µM | 
CCCCCCCCC/C=C/C=C/C(=O)NCC(=O)NC1C(O)C(O)C(Nc2ncnc3nc[nH]c23)OC1C(O)CO (stereo not given) |  | 0.896 µM

Tested on: MDA-MB-231 breast
Assay: NCI anticancer screen, dose series, 48 h

Structure (SMILES) | TGI | GI50
CCOC(=O)C1=NN(c2ccc(C)cc2)C2=CC(C)=NN(C)C(=S)N21 | > 100 µM | 
O=C(c1cccs1)N(C(=S)OC12CC3CC(CC(C3)C1)C2)c1ccccc1 | > 100 µM | 
C(=N\NC1=NCCN1)/c1ccc(-c2cn3cc(/C=N/NC4=NCCN4)ccc3n2)cc1 | 34.6 µM | 
CC1CC[C@@]2(OC1)OC1C[C@H]3[C@@H]4CC=C5CC(OC6OC(CO)C(OC7OC(CO)C(O)C(OC8OCC(O)C(O)C8O)C7OC7OC(CO)C(O)C(O)C7O)C(O)C6O)CCC5(C)[C@H]4CCC3(C)C1[C@@H]2C (stereo not given in full) | 9.29 µM | 
Cc1c(N2C(=O)CS(=O)(=O)C2c2cccc(Oc3ccccc3)c2)c(=O)n(-c2ccccc2)n1C (stereo not given) | > 100 µM | 
CC12CC3OC(=O)C1COC14OC5(C2C1=O)C(O)(CCC1C4CC(O)C2(O)CC=CC(=O)C12C)C(=O)OC35C (stereo not given) | > 100 µM | 
COc1ccc(C(=O)/C=C/c2cccc([N+](=O)[O-])c2)c(OC)c1 | > 50 µM | 1.92 µM
CCOC(=O)C(NC(=O)c1ccco1)(Nc1nc2ccc(OCC)cc2s1)C(F)(F)F (stereo not given) | > 100 µM | 
CCC(C)C1=C(OC(C)=O)[N+]2([O-])Oc3ccc(-c4c(OC(C)=O)c(OC(C)=O)c(-c5ccc(OC(C)=O)cc5)c(OC(C)=O)c4OC(C)=O)cc3OC2(C(C)CC)C(=O)N1OC(C)=O (stereo not given) | > 50 µM | 
O=C(O)C1C2CCC(O2)C1C(=O)Nc1cccc2cccnc12 (stereo not given) | > 100 µM | 
COc1cccc2c1Cc1cc(-c3ccccc3)[n+](C)n1-2 | 81.7 µM | 
O=C(C[n+]1ccc2ccccc2c1)c1ccc2ccc3ccccc3c2c1 | 15.3 µM | 
NCCCCc1cc(O)c2c(c1O)C(=O)c1ccccc1C2=O | 24.2 µM | 
Cc1ccccc1C(=O)N/N=C/c1ccc(Sc2nccn2C)c([N+](=O)[O-])c1 | > 100 µM | 
CCn1c(-c2ccc(N=NNc3ccc(-c4n[nH]c(=S)n4CC)cc3)cc2)n[nH]c1=S | > 100 µM | 
CC(=O)C1=C(C)N(c2ccc(C)cc2)C2(O)C=CC(=O)C3C(=O)N(c4ccccc4)C(=O)C132 (stereo not given) | 42.8 µM | 
COc1ccc2c(c1)[nH]c1c(/C=C/c3ccccc3)nccc12 | 37.2 µM | 
Clc1cc2c(cc1Cl)CC(NCCN1CCCC1)CC2 (stereo not given) | 30.3 µM | 
CCN(CC(=O)O)C(=O)c1cccnc1 | > 100 µM | 
NCCSC(c1ccccc1)c1ccccc1 | 37.3 µM | 
COc1nc(C#CC2(O)CCCCC2)nc(OC)n1 | 15 µM | 
C[C@H](CCC(=O)O)[C@H]1CC[C@@]2(C)[C@@H]3C(=O)C[C@H]4C(C)(C)[C@@H](O)CC[C@]4(C)[C@H]3C(=O)C[C@]12C | > 100 µM | 
